Measurements as given in ChEMBL document CHEMBL1275437, “Prevalence of serotype 19A Streptococcus pneumoniae among isolates from U.S. children in 2005-2006 and activity of faropenem” (2008).
≈ marks a conversion by molar mass, not a printed value.

Assays:
Type in all cases: functional
[1] = tested on: Streptococcus pneumoniae; assay: Antibacterial activity against Streptococcus pneumoniae serotype 15A by broth microdilution method
[2] = tested on: Streptococcus pneumoniae; assay: Antibacterial activity against Streptococcus pneumoniae serotype 23A assessed as percent susceptible isolates by broth microdilution method
[3] = tested on: Streptococcus pneumoniae; assay: Antibacterial activity against Streptococcus pneumoniae serotype 22 assessed as percent resistant isolates by broth microdilution method
[4] = tested on: Streptococcus pneumoniae; assay: Antibacterial activity against Streptococcus pneumoniae serotype 35B assessed as percent susceptible isolates by broth microdilution method
[5] = tested on: Streptococcus pneumoniae; assay: Antibacterial activity against Streptococcus pneumoniae serotype 19A assessed as percent susceptible isolates by broth microdilution method
[6] = tested on: Streptococcus pneumoniae; assay: Antibacterial activity against Streptococcus pneumoniae serotype 19A assessed as percent resistant isolates by broth microdilution method
[7] = tested on: Streptococcus pneumoniae; assay: Antibacterial activity against Streptococcus pneumoniae serotype 15A assessed as percent resistant isolates by broth microdilution method
[8] = tested on: Streptococcus pneumoniae; assay: Antibacterial activity against Streptococcus pneumoniae serotype 19A by broth microdilution method
[9] = tested on: Streptococcus pneumoniae; assay: Antibacterial activity against Streptococcus pneumoniae serotype 23A by broth microdilution method
[10] = tested on: Streptococcus pneumoniae; assay: Antibacterial activity against Streptococcus pneumoniae serotype 22 assessed as percent susceptible isolates by broth microdilution method
[11] = tested on: Streptococcus pneumoniae; assay: Antibacterial activity against Streptococcus pneumoniae serotype 19F by broth microdilution method
[12] = tested on: Streptococcus pneumoniae; assay: Antibacterial activity against Streptococcus pneumoniae serotype 6A/C assessed as percent resistant isolates by broth microdilution method
[13] = tested on: Streptococcus pneumoniae; assay: Antibacterial activity against Streptococcus pneumoniae serotype 3 assessed as percent susceptible isolates by broth microdilution method
[14] = tested on: Streptococcus pneumoniae; assay: Antibacterial activity against Streptococcus pneumoniae serotype 15A assessed as percent susceptible isolates by broth microdilution method
[15] = tested on: Streptococcus pneumoniae; assay: Antibacterial activity against Streptococcus pneumoniae serotype 6A/C assessed as percent susceptible isolates by broth microdilution method
[16] = tested on: Streptococcus pneumoniae; assay: Antibacterial activity against Streptococcus pneumoniae serotype 35B by broth microdilution method
[17] = tested on: Streptococcus pneumoniae; assay: Antibacterial activity against Streptococcus pneumoniae serotype 33 assessed as percent resistant isolates by broth microdilution method
[18] = tested on: Streptococcus pneumoniae; assay: Antibacterial activity against Streptococcus pneumoniae serotype 23A assessed as percent resistant isolates by broth microdilution method
[19] = tested on: Streptococcus pneumoniae; assay: Antibacterial activity against Streptococcus pneumoniae serotype 3 by broth microdilution method
[20] = tested on: Streptococcus pneumoniae; assay: Antibacterial activity against Streptococcus pneumoniae serotype 22 by broth microdilution method
[21] = tested on: Streptococcus pneumoniae; assay: Antibacterial activity against Streptococcus pneumoniae serotype 35B assessed as percent resistant isolates by broth microdilution method
[22] = tested on: Streptococcus pneumoniae; assay: Antibacterial activity against Streptococcus pneumoniae serotype 33 by broth microdilution method
[23] = tested on: Streptococcus pneumoniae; assay: Antibacterial activity against Streptococcus pneumoniae serotype 33 assessed as percent susceptible isolates by broth microdilution method
[24] = tested on: Streptococcus pneumoniae; assay: Antibacterial activity against Streptococcus pneumoniae serotype 6A/C by broth microdilution method
[25] = tested on: Streptococcus pneumoniae; assay: Antibacterial activity against Streptococcus pneumoniae serotype 3 assessed as percent resistant isolates by broth microdilution method
[26] = tested on: Streptococcus pneumoniae; assay: Antibacterial activity against Streptococcus pneumoniae serotype 19F assessed as percent susceptible isolates by broth microdilution method
[27] = tested on: Streptococcus pneumoniae; assay: Antibacterial activity against Streptococcus pneumoniae serotype 19F assessed as percent resistant isolates by broth microdilution method
[28] = Streptococcus pneumoniae, serotype 19A
[29] = Streptococcus pneumoniae, serotype 15A
[30] = Streptococcus pneumoniae, serotype 6A/C
[31] = Streptococcus pneumoniae, serotype 35B
[32] = Streptococcus pneumoniae, serotype 19F

Row | Compound | MIC90 [1] | percent susceptible isolates [2] | % resistant isolates [3] | percent susceptible isolates [5] | MIC90 [8] | MIC90 [9] | % susceptible isolates [10] | MIC90 [11] | % susceptible isolates [13] | percent susceptible isolates [14] | percent susceptible isolates [15] | MIC90 [16] | % resistant isolates [17] | % resistant isolates [18] | MIC90 [19] | MIC90 [20] | % susceptible isolates [23] | MIC90 [24] | % resistant isolates [25] | percent susceptible isolates [26] | further results
1 | CO/N=C(\C(=O)N[C@@H]1C(=O)N2C(C(=O)OC(C)OC(C)=O)=C(COC(N)=O)CS[C@H]12)c1ccco1 (stereo not given in full) [CEFUROXIME AXETIL] | 4 µg/mL (≈ 7.84 µM) | 93% | 0% | 46% | 16 µg/mL (≈ 31.3 µM) | 1 µg/mL (≈ 1.96 µM) | 100% | 32 µg/mL (≈ 62.7 µM) | 100% | 72% | 64% | 4 µg/mL (≈ 7.84 µM) | 0% | 0% | ≤ 0.5 µg/mL | ≤ 0.5 µg/mL | 100% | 4 µg/mL (≈ 7.84 µM) | 0% | 33% | % susceptible isolates [4]: 0%; % resistant isolates [6, 28]: 52%; % resistant isolates [7, 29]: 21%; % resistant isolates [12, 30]: 15%; % resistant isolates [21, 31]: 100%; MIC90 [22]: ≤ 0.5 µg/mL; % resistant isolates [27, 32]: 67%
2 | CC[C@H]1OC(=O)[C@H](C)[C@@H](O[C@H]2C[C@@](C)(OC)[C@@H](O)[C@H](C)O2)[C@H](C)[C@@H](O[C@@H]2O[C@H](C)C[C@H](N(C)C)[C@H]2O)[C@](C)(O)C[C@@H](C)CN(C)[C@H](C)[C@@H](O)[C@]1(C)O [AZITHROMYCIN] | > 16 µg/mL | 79% | 0% | 36% | > 16 µg/mL | > 16 µg/mL | 100% | > 16 µg/mL | 93% | 7% | 31% | 16 µg/mL (≈ 21.4 µM) | 0% | 0% | 0.5 µg/mL (≈ 0.668 µM) | ≤ 0.12 µg/mL | 42% | 8 µg/mL (≈ 10.7 µM) | – | 29% | % susceptible isolates [4, 31]: 73%; % resistant isolates [6, 28]: 64%; % resistant isolates [7, 29]: 93%; % resistant isolates [12, 30]: 69%; % resistant isolates [21, 31]: 27%; MIC90 [22]: 16 µg/mL (≈ 21.4 µM); % resistant isolates ([25]; Streptococcus pneumoniae, serotype 3): 4%; % resistant isolates [27, 32]: 71%
3 | C[C@H]1COc2c(N3CCN(C)CC3)c(F)cc3c(=O)c(C(=O)O)cn1c23.C[C@H]1COc2c(N3CCN(C)CC3)c(F)cc3c(=O)c(C(=O)O)cn1c23.O [LEVOFLOXACIN] | 1 µg/mL | 100% | 0% | 100% | 1 µg/mL | 1 µg/mL | 100% | 1 µg/mL | 97% | 100% | 100% | 1 µg/mL | 0% | 0% | 2 µg/mL | 1 µg/mL | 1% | 1 µg/mL | 0% | 100% | % susceptible isolates [4, 31]: 100%; % resistant isolates [6]: 0%; % resistant isolates [7]: 0%; % resistant isolates [12]: 0%; % resistant isolates [21]: 0%; % resistant isolates [27]: 0%
4 | CC[C@H]1OC(=O)[C@H](C)C(=O)[C@H](C)[C@@H](O[C@@H]2O[C@H](C)C[C@H](N(C)C)[C@H]2O)[C@](C)(OC)C[C@@H](C)C(=O)[C@H](C)[C@H]2N(CCCCn3cnc(-c4cccnc4)c3)C(=O)O[C@]12C [TELITHROMYCIN] | ≤ 0.12 µg/mL | 100% | 0% | 99% | 1 µg/mL (≈ 1.23 µM) | ≤ 0.12 µg/mL | 100% | 1 µg/mL (≈ 1.23 µM) | 100% | 100% | 100% | 0.5 µg/mL (≈ 0.616 µM) | 0% | 0% | ≤ 0.12 µg/mL | ≤ 0.12 µg/mL | 0.25% | 0.25 µg/mL (≈ 0.308 µM) | 0% | 100% | % susceptible isolates [4, 31]: 100%; % resistant isolates [6]: 0%; % resistant isolates [7]: 0%; % resistant isolates [12]: 0%; % resistant isolates [21]: 0%; % resistant isolates [27]: 0%
5 | C=CC1=C(C(=O)O)N2C(=O)[C@@H](NC(=O)/C(=N\O)c3csc(N)n3)[C@H]2SC1 [CEFDINIR] | 1 µg/mL (≈ 2.53 µM) | 93% | 0% | 46% | > 8 µg/mL | 0.5 µg/mL (≈ 1.26 µM) | 100% | > 8 µg/mL | 100% | 72% | 59% | 4 µg/mL (≈ 10.1 µM) | 0% | 0% | 0.12 µg/mL (≈ 0.303 µM) | 0.12 µg/mL (≈ 0.303 µM) | 100% | 2 µg/mL (≈ 5.06 µM) | 0% | 33% | % susceptible isolates [4]: 0%; % resistant isolates [6, 28]: 53%; % resistant isolates [7, 29]: 7%; % resistant isolates [12, 30]: 15%; % resistant isolates [21, 31]: 100%; MIC90 [22]: 0.12 µg/mL (≈ 0.303 µM); % resistant isolates [27, 32]: 67%
6 | CC1(C)S[C@@H]2[C@H](NC(=O)Cc3ccccc3)C(=O)N2[C@H]1C(=O)O [PENICILLIN G] | 0.5 µg/mL (≈ 1.5 µM) | 57% | 0% | 13% | 4 µg/mL (≈ 12 µM) | 0.5 µg/mL (≈ 1.5 µM) | 100% | > 4 µg/mL | 100% | 7% | 23% | 2 µg/mL (≈ 5.98 µM) | 0% | 0% | ≤ 0.03 µg/mL | ≤ 0.03 µg/mL | 92% | 1 µg/mL (≈ 2.99 µM) | 0% | 33% | % susceptible isolates [4]: 0%; % resistant isolates [6, 28]: 50%; % resistant isolates [7]: 0%; % resistant isolates [12, 30]: 8%; % resistant isolates [21, 31]: 100%; MIC90 [22]: ≤ 0.03 µg/mL; % resistant isolates [27, 32]: 67%
